Laboratory results taken from patent US10085988B1, “Aglaroxin C and derivatives as HCV entry inhibitors” (SRI International, priority 2015, dated 2018).
pEC50: −log10 of the molar value.

Columns and labels:
HCVcc-Luc = experiment: Time-of-addition experiment, HCVcc-Luc on Huh7.5.1 cells; type: cell-based, Hepatitis C virus; details: 2 μM
Experimental: (§1) (A) PHHs seeded in a 48-well plate were treated with Roc-A or DMSO and then infected by HCVpp. EC50and CC50 (50% cytotoxicity dose) were calculated based on the fitted Sigmoid curves. (B) Huh7.5.1 cells were treated with Roc-A (20 nM) or DMSO for 1, 2, and 3 days. Cellular PHB1, PHB2, CRaf, and Ras were detected by Western blotting. Numbers shown below Western blot gel images indicate the relative protein levels quantified by Odyssey imaging system (LI-COR Biosciences). (C-D) Flag-CRaf (F-CRaf) and V5-tagged PHB1 & 2 were co-transfected into 293T cells and then left untreated or treated with Roc-A (20 nM) before immunoprecipitation with anti-Flag antibody. The pulled-down PHB1 & 2 as well as CRaf were detected by immunoblotting. (E) Different inhibitory profiles of the (+)- and(−)-Roc-A enantiomers on HCVcc infection. (F) A CMV-luciferase reporter construct was transfected into Huh7.5.1 cells. 24 h post-transfection each compound was added to the cells for 3 h at 2 μM. After removal of the compound, the cells were further incubated for 24 h followed by luciferase assay. […] HCVcc-Luc was added to Huh7.5.1 cells at 37° C. and incubated for 3 h. At the indicated time points, 2μM of each compound or DMSO was added into the media and incubated for 3 h prior to removal. Infected cells were incubated at 37° C. for an additional 48 h prior to luciferase assay (mean of n=3; error bars, s.d.).

[1] = tested on: protein translation (luciferase reporter gene); experiment: Translation inhibition, CMV-luciferase reporter transfected into Huh7.5.1 cells; type: cell-based, human; details: compound added for 3 h, luciferase reporter in Huh7.5.1 cells
Experimental: as §1

[2] = tested on: JFH-1 genotype 2a infectious virus (HCVcc); experiment: HCV (HCVcc) infection / viral entry inhibition on Huh7.5.1 cells; type: cell-based, Hepatitis C virus; details: for pEC50: Hepatitis C virus; for inhibition on HCV entry (enantiomer comparison): HCVcc infection
Experimental: as §1
(§2) In a preferred embodiment, Y is C, R1, R3, and R4 from the structure 5 is —OCH3, and R2 and R5 is hydrogen, which is aglaroxin C. […] The term EC50 refers to the concentration of a drug or antibody which induces a response halfway between the baseline and maximum after a specified exposure time. It is commonly used as a measure of drug's potency. The 50% cytotoxic concentration (CC50) is defined as the quantity of a toxicant generating 50% of cell viability, compared to the control. The values of the percentages of cell viability were plotted against toxicant concentrations, and CC50 is determined. (TI) is a comparison of the amount of a therapeutic agent that causes the therapeutic effect to the amount that causes toxicity.

[3] = Cytotoxicity (CC50) on Huh7.5.1 cells; type: cell-based; details: human; for CC50 at 3 h: compounds incubated with cells for a total of 3 h on Huh7.5.1 cells; for CC50 at 48 h: compounds incubated with cells for a total of 48 h on Huh7.5.1 cells
Source text: as §2

[4] = target: PHB1, PHB2, CRaf, and Ras (Homo sapiens (Human), UniProt P35232+Q99623); experiment: Western blot of total cellular protein levels in Huh7.5.1 cells; type: cell-based; details: 20 nM, 1, 2, and 3 days
Experimental: as §1

[5] = tested on: HCV RNA replication or protein translation; experiment: HCV RNA replication or protein translation; type: cell-based, Hepatitis C virus; details: 20 nM
HCVpp = HCVpp infection/entry, primary human hepatocytes (PHHs), with cell viability; type: cell-based, Hepatitis C virus
PHB1 and PHB2 = PHB1 and PHB2 (Homo sapiens (Human), UniProt P35232+Q99623); experiment: Cell surface biotinylation assay; type: cell-based; details: 20 nM, Huh7.5.1 cells
CHIKVpp = CHIKVpp infection of Huh7.5.1 cells; type: cell-based, chikungunya virus; details: low nanomolar concentrations
Experimental: FIGS. 4A and 4B illustrate that PHBs are required for CHIKVpp entry. (A) Huh7.5.1 were transfected with indicated siRNA, followed by infection of CHIKVpp (mean±SD, *p<0.05). (B) Huh 7.5.1 cells were treated with DMSO or Roc-A (10 nM) and then infected by CHIKVpp for luciferase assay (mean±SD, *p<0.05).

[6] = human liver microsomal stability assay
PHB-CRaf interaction = PHB-CRaf interaction (Homo sapiens (Human), UniProt P35232+Q99623); experiment: Co-IP of Flag-CRaf and V5-tagged PHB1 & 2 in 293T cells; type: cell-based; details: 20 nM
Experimental: as §1

DENV2 = DENV2 infection of Huh7.5.1 cells; type: cell-based, dengue virus
Experimental: Huh7.5.1 cells were treated by DMSO, Roc-A (5nM) or Roc-A (10nM) for 10 hours prior to infection by DENV2 (MOI 0.1 and 1). 36 hours post-infection, cells were fixed in methanol and immunostained for DENV prM/E (red).

[7] = 3 h incubation on Huh7.5.1 cells
[8] = 48 h incubation on Huh7.5.1 cells

Chain of PHB-CRaf interaction (P35232 whole entry): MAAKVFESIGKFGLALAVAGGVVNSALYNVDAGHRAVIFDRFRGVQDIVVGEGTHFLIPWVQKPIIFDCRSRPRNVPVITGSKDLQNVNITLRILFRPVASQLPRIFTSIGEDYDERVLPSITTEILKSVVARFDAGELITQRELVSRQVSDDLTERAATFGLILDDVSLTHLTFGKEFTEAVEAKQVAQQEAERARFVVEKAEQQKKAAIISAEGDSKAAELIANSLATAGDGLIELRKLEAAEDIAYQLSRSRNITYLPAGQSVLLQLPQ
Chain of PHB-CRaf interaction (Q99623 whole entry): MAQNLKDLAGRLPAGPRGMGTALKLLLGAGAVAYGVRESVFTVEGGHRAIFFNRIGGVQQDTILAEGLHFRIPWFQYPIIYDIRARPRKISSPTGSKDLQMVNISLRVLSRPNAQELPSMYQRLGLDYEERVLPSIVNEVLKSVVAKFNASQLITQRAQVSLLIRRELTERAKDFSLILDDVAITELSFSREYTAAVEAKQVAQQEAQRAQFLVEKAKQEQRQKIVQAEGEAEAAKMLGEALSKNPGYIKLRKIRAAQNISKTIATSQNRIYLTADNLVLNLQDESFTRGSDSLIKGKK

For `COc1ccc([C@@]23Oc4cc(OC)cc(OC)c4[C@]2(O)c2nc4n(c(=O)c2[C@H]3c2ccccc2)CCC4)cc1` (racemic) [(±) aglaroxin C (C10), aglaroxin C], the anti-HCV activity (HCVcc-Luc; added about 3 h after the infection was initiated) was “lost its activity”, the anti-HCV activity (HCVcc-Luc; added together with the virus) was “inhibited HCV infection when added together with the virus” and the anti-HCV activity (HCVcc-Luc; added together with the virus, listed as chiral, racemic aglaroxin C) was “maximal anti-HCV activity”. For the same molecule, the “Translation inhibition at 2 μM” value [1] was “No”, the “Translation inhibition at 2 μM” value ([1]; listed as chiral, racemic aglaroxin C) was “did not inhibit” and the “TI (CC50/EC50)” value [2, 7] was 100. For the same molecule, the “TI (CC50/EC50)” value [2, 8] was 500, the pEC50 ([2]; Huh-7.5.1, 3 h) was 7.00 and the pEC50 ([2]; Huh-7.5.1, 48 h) was 10.40. The “half-maximum effective concentrations (EC50)” value ([2]; JFH-1 genotype 2a infectious virus in cell culture) was “picomolar”, the CC50 at 3 h [3] was 10 µM and the CC50 at 48 h [3] was 0.02 µM.
For `COc1ccc([C@]23Oc4cc(OC)cc(OC)c4[C@@]2(O)[C@@H](O)[C@@H](C(=O)N(C)C)[C@@H]3c2ccccc2)cc1` [(+) Roc-A], the “Translation inhibition at 2 μM” value [1] was “No”, the pEC50 ([2]; Huh-7.5.1, 3 h) was under 3.70 and the CC50 at 3 h [3] was 300 µM.
With `COc1ccc([C@]23Oc4cc(OC)cc(OC)c4[C@@]2(O)c2nc4n(c(=O)c2[C@@H]3c2ccccc2)CCC4)cc1` [(+)-aglaroxin C] the “Translation inhibition at 2 μM” value [1] was “No”, the “TI (CC50/EC50)” value [2, 7] was 5^1 and the pEC50 ([2]; Huh-7.5.1, 3 h) was 4.70. For the same molecule, the CC50 at 3 h [3] was 100 µM.
In the case of `COc1ccc([C@@]23Oc4cc(OC)cc(OC)c4[C@]2(O)[C@H](O)[C@H](C(=O)N(C)C)[C@H]3c2ccccc2)cc1` [(−) Roc-A], the “Translation inhibition at 2 μM” value [1] was “No”, the “TI (CC50/EC50)” value [2, 7] was 50 and the “TI (CC50/EC50)” value [2, 8] was 75. For the same molecule, the “inhibition on HCV entry (enantiomer comparison)” value [2] was “stronger inhibition on HCV entry than the (+) enantiomer”, the pEC50 ([2]; Huh-7.5.1, 3 h) was 6.00 and the pEC50 ([2]; Huh-7.5.1, 48 h) was 8.40. For the same molecule, the CC50 at 3 h [3] was 50 µM and the CC50 at 48 h [3] was 0.3 µM.
With `COc1ccc([C@@]23Oc4cc(OC)cc(OC)c4[C@]2(O)c2nc4n(c(=O)c2[C@H]3c2ccccc2)CCC4)cc1` [(−)-aglaroxin C] the “Translation inhibition at 2 μM” value [1] was “No”, the “TI (CC50/EC50)” value [2, 7] was 60^1 and the “inhibition on HCV entry (enantiomer comparison)” value [2] was “active enantiomer”. For the same molecule, the pEC50 ([2]; Huh-7.5.1, 3 h) was 6.70 and the CC50 at 3 h [3] was 12 µM.
With `COc1ccc([C@@]23Oc4cc(OC)cc(OC)c4[C@]2(O)[C@H](O)[C@H](C(=O)N(C)C)[C@H]3c2ccccc2)cc1` [Roc-A, rocaglamide A] the “PHB1, 2, Ras, and CRaf at the total protein level” value [4] was “decreased”, the “inhibition of HCV RNA replication or protein translation” value [5] was “did not inhibit” and the HCVpp infection (HCVpp; low nanomolar concentrations) was “significantly reduced”. For the same molecule, the HCVpp entry (HCVpp; pretreatment of PHHs at non-cytotoxic concentrations) was “suppressed”, the “cell surface expression of PHB1 and 2” value (PHB1 and PHB2) was “decreased” and the CHIKVpp infection (CHIKVpp) was “significantly reduced”. For the same molecule, the half-life [6] was 37 min, the HCVcc infection ([2]; low nanomolar concentrations) was “significantly reduced” and the “PHB-CRaf interaction in co-IP experiment” value (PHB-CRaf interaction) was “disrupted”. For the same molecule, the DENV2 infection (DENV2; 5 nM or 10 nM for 10 hours prior to infection, MOI 0.1 and 1, Huh7.5.1 cells) was “reduced” and the dengue virus infection (DENV2; low nanomolar concentrations) was “significantly reduced”.
